The source of these data is patent US8957114B2, “Formulations, salts and polymorphs of transnorsertraline and uses thereof” (Sunovion Pharmaceuticals Inc., priority 2009, dated 2015).

Data set [1] is described as follows: Moisture content by coulometric Karl Fischer titration (KF). The class given is physicochemical. As for the experimental part: (§1) Each salt was analyzed by coulometric titration using an EM Scientific Aquastar C3000 titrator to determine water content. […] Each salt was analyzed using a Perkin Elmer TGA 7 Thermal Gravimetric Analyzer (TGA). […] Moisture sorption isotherms for each salt were generated using the VTI SGA-100 Symmetric Vapor Sorption Analyzer. Samples were run as received without pre-analysis drying. Equilibrium criteria were the lesser of 0.01 wt % change in 5 minutes or 180 minutes at each relative humidity (RH) step. […] Analysis was repeated for each sample in consecutive analyses (sample was not removed from analyzer). Sample sizes ranged from 18 mg to 35 mg.

A short description of data set [2]: VTI moisture sorption isotherm (hygroscopicity). It is filed as physicochemical. The settings on record: 25° C. The procedure:
as §1

Data set [3] in a line: Solubility of transnorsertraline salts in de-ionized water (HPLC). To be noted: saturated solution in de-ionized water. As for the experimental part:
For each salt, saturated solutions with excess solids in deionized water were prepared in 20 mL clear glass scintillation vials with screw caps. All samples were shaken at 300 rpm at ambient conditions for up to nine days until equilibrium was achieved. Solubility was determined using a HPLC method (Table 5).

A short description of data set [4]: Solubility of transnorsertraline salts in aqueous buffer systems (SGF, acetate buffer pH 4.5, SIF; HPLC). The class given is physicochemical. The procedure: Saturated solutions with excess solids were prepared in 20 mL clear glass scintillation vials. Simulated gastric fluid (pH 1.0, ˜0.1N HCl, 0.03M NaCl, no enzymes), simulated intestinal fluid (pH 6.8, 0.05M KH2PO4, ˜0.02N NaOH, no enzymes), and acetate buffer (pH 4.5, 0.02M sodium acetate, 0.03M acetic acid) were prepared in accordance with USP28 (USP28 Test Solutions p2855, Volumetric Solutions p2863). […] Solubility was determined using a HPLC method.

Data set [5] is described as follows: Open dish excipient compatibility study Set 1a/1b (Active 1 with single excipients), 40° C./75% RH, 3 weeks, % impurities. It is filed as physicochemical. The procedure: A Zorban SB-CN […], 25 cm×4.6 mm analytical column using a 0.05% trifluoroacetic acid in a 80:20 water:acetonitrile solution (Mobile Phase A) followed by a 0.05% trifluoroacetic acid in a 15:85 water:acetonitrile solution (Mobile Phase B) was used. Column temperature: 30° C. The flow rate: 1.0 mL/min. Injection volume: 50 μL. Wavelength: 220 nm. Minimum run time: 50 min (15 min delay). Mobile Phase gradient: […]
Transnorsertraline HCl (1) (“Active 1”) was mixed with each excipient present in 1 mg capsule strength respectively. The samples contained two different ratios (1:1 and as in the 1 mg capsules) of active and excipients.

Where [6] appears, read: repeated consecutive analysis (second line).
Setting [7] is: saturated solution in 0.05M Acetate Buffer (pH 4.5).
Setting [8] is: saturated solution in Simulated Gastric Fluid.
Setting [9] is: saturated solution in Simulated Intestinal Fluid.
The mark [10] stands for this setting: Set 1a, active:excipient 1:1, open dish 40° C./75% RH.
The mark [11] stands for this setting: Set 1b, active:excipient ratio as in 1 mg capsules, open dish 40° C./75% RH.

On to L-tartrate, for which, in data set [1], the “Initial KF (% H2O)” value is 0.62 % H2O. Further, the “VTI Adsorp. (% wt gain 25 to 95% RH)” value worked out at 3.52 % wt gain in data set [2] (first analysis) and 1.37 % wt gain in data set [2] (setting [6]). Moreover, in data set [2] (first analysis), the “VTI Desorp. (% wt loss 95 to 25% RH)” value came to 1.36 % wt loss. Moreover, the pH in data set [3] is listed as 2.63; in data set [4] (setting [7]), 4.58; in data set [4] (setting [8]), 1.24; in data set [4] (setting [9]), 6.73.
Turning to Citrate, the “Initial KF (% H2O)” value in data set [1] is given as 0.31 % H2O. Besides, the “VTI Adsorp. (% wt gain 25 to 95% RH)” value in data set [2] (first analysis) is on record as 2.59 % wt gain; in data set [2] (setting [6]) it was 3.24 % wt gain. The figures for the “VTI Desorp. (% wt loss 95 to 25% RH)” value in data set [2] (first analysis) and in data set [2] (setting [6]) were 3.96 % wt loss and 3.61 % wt loss, respectively.
As to S-mandelate, the “Initial KF (% H2O)” value in data set [1] was 0.32 % H2O. Moreover, the “VTI Adsorp. (% wt gain 25 to 95% RH)” value in data set [2] (first analysis) came out at 3.24 % wt gain; in data set [2] (setting [6]) it was 3.79 % wt gain. The “VTI Desorp. (% wt loss 95 to 25% RH)” value in data set [2] (first analysis) was found to be 3.95 % wt loss; in data set [2] (setting [6]), 3.02 % wt loss.
Turning to Phosphate, the “Initial KF (% H2O)” value in data set [1] is 0.16 % H2O. For the same compound, the “VTI Adsorp. (% wt gain 25 to 95% RH)” value is 3.00 % wt gain in data set [2] (first analysis) and 2.14 % wt gain in data set [2] (setting [6]). Besides, the “VTI Desorp. (% wt loss 95 to 25% RH)” value is listed as 1.37 % wt loss in data set [2] (first analysis) and 1.20 % wt loss in data set [2] (setting [6]). Further, the pH in data set [3] is listed as 3.27; in data set [4] (setting [7]), 4.55; in data set [4] (setting [8]), 1.24; in data set [4] (setting [9]), 6.49. Also, the “Solubility in Freebase Equivalents mgA/mL” value in data set [4] (pH 1) is under 0.01 mgA/mL; in data set [4] (pH 4.5) it was 2.63 mgA/mL; in data set [4] (pH 6.8), 0.27 mgA/mL.
Transnorsertraline HCl [active 1]: in data set [5] (setting [10]), the “% Active” value stood at 99.68%; the “% Impurities, peak RRT 0.764” value worked out at 0.05%; the “% Impurities, peak RRT 0.862, Synthetic Impurity 1” value was determined as 0.04%; the “% Impurities, peak RRT 0.885, Synthetic Impurity 2” value is 0.05%. Besides, in data set [5] (setting [10]), the “% Impurities, peak RRT 1.07, cis-diastereomer” value amounted to 0.12%; the “% Impurities, peak RRT 1.386” value amounted to 0.07%; the “% Total Impurities” value is reported as 0.33%. In data set [5] (Set 1a, ratio of active to excipient 1:1, 40° C./75% RH), the “impurities formed due to the presence of excipients” value is recorded as “no appreciable impurities formed”. Further, in data set [5] (setting [11]), the “% Active” value worked out at 99.68%; the “% Impurities, peak RRT 0.764” value was determined as 0.05%; the “% Impurities, peak RRT 0.862, Synthetic Impurity 1” value is 0.04%; the “% Impurities, peak RRT 0.885, Synthetic Impurity 2” value was determined as 0.05%. In data set [5] (setting [11]), the “% Impurities, peak RRT 1.07, cis-diastereomer” value stood at 0.12%; the “% Impurities, peak RRT 1.386” value was 0.07%; the “% Total Impurities” value worked out at 0.33%.
Consider `N[C@@H]1CC[C@@H](c2ccc(Cl)c(Cl)c2)c2ccccc21.O=C1CC[C@@H](C(=O)O)N1`, for which, in data set [1], the “Initial KF (% H2O)” value amounted to 0.10 % H2O. For the same compound, the “VTI Adsorp. (% wt gain 25 to 95% RH)” value in data set [2] (first analysis) amounted to 17.28 % wt gain.
Regarding Succinate, the “Initial KF (% H2O)” value in data set [1] is 1.03 % H2O. Besides, the “VTI Adsorp. (% wt gain 25 to 95% RH)” value in data set [2] (first analysis) worked out at 3.25 % wt gain. For the same compound, in data set [2] (first analysis), the “VTI Desorp. (% wt loss 95 to 25% RH)” value was 3.17 % wt loss. In addition, the pH in data set [3] is given as 3.89; in data set [4] (setting [7]), 4.50; in data set [4] (setting [8]), 1.27; in data set [4] (setting [9]), 6.46.
